This data set can be described thus: Solubility of volatile organic halide in carbonic acid aqueous solution (Example 3). It is filed as physicochemical. The settings on record: for solubility at 24 h: 20.7 °C, thermodynamic from solid, read-out: Detected amount of trichloroethylene (saturated solubility). Here is the method:
Using a carbonic acid aqueous solution having carbonated ion-concentration of 7,700 mg/L (i.e., 7,700 ppm) and natural water (trade name: Eapin; carbonated ion-concentration of 0 mg/L), four kinds of carbonic acid aqueous solutions (i.e., carbonated ion-concentration: 340 mg/L, 920 mg/L, 1700 mg/L and 7,700 mg/L) were prepared.
Using a syringe, 0.14 g of excess trichloroethylene was added to the water or solution, and each linked part in the Glass-Vials was sealed by the use of Teflon tape. The mixture was stirred for 30 minutes using a magnetic stirrer, and allowed to stand for 24 hours. Thereafter, a supernatant fraction was quickly collected and extracted to give trichloroethylene. These procedures were performed at temperature of 20.7° C.
As for the above natural water and carbonic acid aqueous solutions before the injection into the glass-bialbin, their carbonated ion-concentrations were measured by means of neutralization titration. The titration was conducted according to strontium chloride/monobasic acid-base titration described in JIS K 0101 25.
To the supernatant fraction obtained above, n-hexane for test of remaining agriculture chemical was added in the same amount as the fraction, and vigorously stirred to give an n-hexane layer. The layer was analyzed by a gas chromatography in the following conditions:
Analyzer: GC-17A type available from Shimadzu Corp.
Column: AQUATAC 75 m×0.53 mmφ
Column Temperature: 210° C.

Converted amounts (≈) assume the structure as drawn. Read-outs that look alike come from different tables or passages of the source.

By solubility is commonly meant the concentration that dissolves in the medium under given conditions. Turning to `ClC=C(Cl)Cl` [trichloroethylene], the solubility at 24 h is 0.78 mg/mL (≈ 5.94 mM) (aqueous buffer, Carbonated ion concentration 340 mg/L); 1 mg/mL (≈ 7.61 mM) (aqueous buffer, Carbonated ion concentration 920 mg/L); 1.3 mg/mL (≈ 9.89 mM) (aqueous buffer, Carbonated ion concentration 7700 mg/L); 0.75 mg/mL (≈ 5.71 mM) (natural water (Eapin; carbonated ion concentration 0 mg/L), water, Carbonated ion concentration 0 mg/L (natural water)). Moreover, the “Detected amount of trichloroethylene (saturated solubility)” value (Carbonated ion concentration 1700 mg/L, 20.7° C.) is 1.1 mg/mL.
